Measurements taken from US10294202B2, “Pyrrolidinones as herbicides” (FMC Corporation, priority 2013, dated 2019).

Experiments:
blackgrass = assay: Test A postemergence herbicide test; format: in vivo, Alopecurus myosuroides
Outline: (§1)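 Injury was rated visually about 10 days after treatment on a 0 (no effect) to 100 (complete control) scale, compared with untreated plants. Test chemicals were sprayed postemergence onto greenhouse plants 2–10 cm high at one to two leaves, grown in a loam–sand blend.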

ryegrass, Italian = assay: Test A pre-/postemergence herbicide test; format: in vivo, Lolium multiflorum
Outline: (§2)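 Formulated compound (non-phytotoxic solvent, surfactant) sprayed pre- onto soil of seeded loam/sand pots or post- onto seedlings at 1–2 leaves; ~10 d greenhouse; 0–100 visual control rating versus untreated.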

corn = assay: Test A pre-/postemergence herbicide test; format: in vivo, Zea mays; settings: Postemergence
Outline: as §2

barnyardgrass [1] = assay: Test B flooded paddy test; format: in vivo, Echinochloa crus-galli; settings: 500 g ai/ha, Flood; scale of 0 to 100 where 0 is no effect and 100 is complete control
Outline: (§3)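 Paddy-water application at a 3 cm flood, young plants having two leaves. Water level maintained; greenhouse, 13–15 days; visual 0–100 control rating.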

ragweed = assay: Test A pre-/postemergence herbicide test; format: in vivo, Ambrosia elatior
Outline: as §2

barnyardgrass [2] = assay: Test A pre-/postemergence herbicide test; format: in vivo, Echinochloa crus-galli
Outline: as §2

ducksalad = assay: Test B flooded paddy test; format: in vivo, Heteranthera limosa; settings: 500 g ai/ha, Flood; scale of 0 to 100 where 0 is no effect and 100 is complete control
Outline: as §3

giant foxtail = assay: Test A pre-/postemergence herbicide test; format: in vivo, Setaria faberii
Outline: as §2

wheat = assay: Test A pre-/postemergence herbicide test; format: in vivo, Triticum aestivum; settings: Postemergence
Outline: as §2

galium = assay: Test A postemergence herbicide test; format: in vivo, Galium aparine
Outline: as §1

pigweed = assay: Test A pre-/postemergence herbicide test; format: in vivo, Amaranthus retroflexus
Outline: as §2

sedge, umbrella = assay: Test B flooded paddy test; format: in vivo, Cyperus difformis; settings: 500 g ai/ha, Flood; scale of 0 to 100 where 0 is no effect and 100 is complete control
Outline: as §3

kochia = assay: Test A pre-/postemergence herbicide test; format: in vivo, Kochia scoparia
Outline: as §2

rice = assay: Test B flooded paddy test; format: in vivo, Oryza sativa; settings: 500 g ai/ha, Flood; scale of 0 to 100 where 0 is no effect and 100 is complete control
Outline: as §3

[3] = 125 g ai/ha, 0 to 100 scale, 0 is no effect, 100 is complete control
[4] = 500 g ai/ha, 0 to 100 scale (0 no effect, 100 complete control)
[5] = 125 g ai/ha, visual rating, 0 to 100 scale, 0 no effect, 100 complete control, approximately 10 days, preemergence
[6] = Postemergence, 125 g ai/ha, 0 to 100 scale, 0 is no effect, 100 is complete control
[7] = Postemergence, 500 g ai/ha, 0 to 100 scale (0 no effect, 100 complete control)
[8] = preemergence, 500 g ai/ha, 0 to 100 scale, 0 is no effect and 100 is complete control
[9] = Postemergence, 125 g ai/ha, visual rating on 0 to 100 scale (0 no effect, 100 complete control), approx. 10 days
[10] = Preemergence, 125 g ai/ha, 0 to 100 scale where 0 is no effect and 100 is complete control
[11] = 125 g ai/ha, visual rating on 0 to 100 scale (0 no effect, 100 complete control), approx. 10 days

| Compound | Plant response rating, Blackgrass (blackgrass; [3]) | Plant response rating, Blackgrass (blackgrass; [4]) | Plant response rating, Ryegrass, Italian (ryegrass, Italian; [7]) | Plant response rating, Corn (corn; [4]) | Plant response rating, Barnyardgrass (barnyardgrass [1]) | Plant response rating, Ragweed (ragweed; [7]) | Plant response rating, Ragweed (ragweed; [8]) | Plant response rating, Barnyardgrass (barnyardgrass [2]; [7]) | Plant response rating, Barnyardgrass (barnyardgrass [2]; [8]) | Plant response rating, Ducksalad (ducksalad) | Plant response rating, Foxtail, Giant (giant foxtail; [7]) | Plant response rating, Foxtail, Giant (giant foxtail; [8]) | Plant response rating, Wheat (wheat; [4]) | Plant response rating, Galium (galium; [4]) | Plant response rating, Pigweed (pigweed; [7]) | Plant response rating, Pigweed (pigweed; [8]) | Plant response rating, Sedge, Umbrella (sedge, umbrella) | Plant response rating, Kochia (kochia; [7]) | Plant response rating, Kochia (kochia; [8]) | Plant response rating, Rice (rice) | further results |
| --- | --- | --- | --- | --- | --- | --- | --- | --- | --- | --- | --- | --- | --- | --- | --- | --- | --- | --- | --- | --- | --- |
| O=C1NCC(c2ccc(F)cc2)C1C(=O)Nc1ccccc1F (stereo not drawn) [Compound 239] | 20 | 20 | 20 | 0 | 50 | 0 | 90 | 90 | 90 | 100 | 90 | 90 | 20 | 30 | 0 | 0 | 0 | 20 | 70 | 0 | Plant response rating, Ryegrass, Italian (ryegrass, Italian; [5]): 0; Plant response rating, Ryegrass, Italian (ryegrass, Italian; [6]): 0; Plant response rating, Ryegrass, Italian (ryegrass, Italian; [8]): 0; Plant response rating, Corn (corn; [3]): 0; Plant response rating, Ragweed (ragweed; [5]): 0; Plant response rating, Ragweed (ragweed; [6]): 0; Plant response rating, Barnyardgrass (barnyardgrass [2]; [5]): 50; Plant response rating, Barnyardgrass (barnyardgrass [2]; [6]): 50; Plant response rating, Foxtail, Giant (giant foxtail; [5]): 80; Plant response rating, Foxtail, Giant (giant foxtail; [6]): 50; Plant response rating, Wheat (wheat; [3]): 0; Plant response rating, Galium (galium; [3]): 0; Plant response rating, Pigweed (pigweed; [5]): 0; Plant response rating, Pigweed (pigweed; [6]): 0; Plant response rating, Kochia (kochia; [5]): 0; Plant response rating, Kochia (kochia; [6]): 0 |
| CC(C)N1CC(c2ccc(F)cc2)C(C(=O)Nc2cccc(F)c2F)C1=O (stereo not drawn) [Compound 276] | 0 | 0 | 0 | 0 | 0 | 0 | 0 | 0 | 0 | 30 | 0 | 0 | 0 | 0 | 0 | 0 | 0 | 0 | 0 | 0 | Plant response rating, Ryegrass, Italian (ryegrass, Italian; [9]): 0; Plant response rating, Ryegrass, Italian (ryegrass, Italian; [10]): 0; Plant response rating, Ryegrass, Italian (ryegrass, Italian; [8]): 0; Plant response rating, Corn (corn; [3]): 0; Plant response rating, Ragweed (ragweed; [9]): 0; Plant response rating, Ragweed (ragweed; [10]): 0; Plant response rating, Barnyardgrass (barnyardgrass [2]; [6]): 0; Plant response rating, Barnyardgrass (barnyardgrass [2]; [10]): 0; Plant response rating, Foxtail, Giant (giant foxtail; [6]): 0; Plant response rating, Foxtail, Giant (giant foxtail; [10]): 0; Plant response rating, Wheat (wheat; [11]): 0; Plant response rating, Galium (galium; [3]): 0; Plant response rating, Pigweed (pigweed; [9]): 0; Plant response rating, Pigweed (pigweed; [10]): 0; Plant response rating, Kochia (kochia; [6]): 0; Plant response rating, Kochia (kochia; [10]): 0 |
| O=C1NCC(c2ccc(Cl)o2)C1C(=O)Nc1ccccc1F (stereo not drawn) [Compound 284] | – | 0 | 0 | 0 | 0 | 0 | 0 | 50 | 60 | 80 | 10 | 70 | 0 | 60 | 0 | 40 | 0 | 0 | 30 | 10 | Plant response rating, Blackgrass (blackgrass; [11]): 0; Plant response rating, Ryegrass, Italian (ryegrass, Italian; [9]): 0; Plant response rating, Ryegrass, Italian (ryegrass, Italian; [10]): 0; Ryegrass, Italian plant response rating (ryegrass, Italian; Preemergence, 500 g ai/ha, visual rating on 0 to 100 scale (0 no effect, 100 complete control)): 0; Plant response rating, Corn (corn; [11]): 0; Plant response rating, Ragweed (ragweed; [9]): 0; Plant response rating, Ragweed (ragweed; [10]): 0; Plant response rating, Barnyardgrass (barnyardgrass [2]; [9]): 0; Plant response rating, Barnyardgrass (barnyardgrass [2]; [10]): 0; Plant response rating, Foxtail, Giant (giant foxtail; [9]): 0; Plant response rating, Foxtail, Giant (giant foxtail; [10]): 40; Plant response rating, Wheat (wheat; [11]): 0; Plant response rating, Galium (galium; [11]): 0; Plant response rating, Pigweed (pigweed; [9]): 0; Plant response rating, Pigweed (pigweed; [10]): 0; Plant response rating, Kochia (kochia; [9]): 0; Plant response rating, Kochia (kochia; [10]): 0 |
